# What was measured:
# [1] = system: circulating neutrophil levels; settings: liposomal formulation of Example 4; 35 mg/kg i.v., 5 daily injections; normal male CD rats
# Description: Blood samples were taken for measurement of neutrophil levels daily.
# [2] = system: fluorouracil-induced neutropenia; settings: liposomal formulation of Example 4; 35 mg/kg i.v., 8 daily injections after fluorouracil 125 mg/kg i.p.; male CD rats
# Protocol: Male CD rats (250–300 g) were injected intraperitoneally with either the antineoplastic drug, fluorouracil (125 mg/kg) or an equivalent volume of its vehicle (saline). […] Rats originally injected with saline rather than fluorouracil received saline intravenously (n=7). Blood samples were taken for measurement of neutrophil levels prior to the fluorouracil and every 1 to 2 days thereafter for 14 days.
substance,measurement,setting,value
γ-Glutamyl-S(benzyl)cysteinyl-R-phenyl glycine diethyl ester hydrochloride [Compound 9],circulating neutrophil levels,[1],increased
same,recovery from chemotherapy-induced neutropenia,[2],accelerated recovery

# Reference: patent publication US7029695B2, “Therapeutic compositions containing glutathione analogs” (Telik, Inc., priority 2001, dated 2006)
